Where two headings read alike, the source gives them in different places.
How the values were obtained:
P. falciparum 3D7 strain [1] = test: P. falciparum growth inhibition assay (3D7 strain); format: cell-based, Plasmodium falciparum; details: for IC50: Plasmodium falciparum, 3D7 strain
Protocol: After the synchronization process, a new culture at 1.5% parasitemia and 2% hematocrit was established and 150 μL aliquots of it were transferred to 96-well plates.
The required amounts of peptides, antimalarial compounds and dyes were added in each well at different concentrations and in triplicates. A positive growth control of untreated parasites and a negative growth control of parasites treated with a lethal dose of chloroquine (1 μM) were also included.
Parasites were grown for 48 h, a complete replication cycle, in standard culturing conditions (5% O2, 5% CO2, and 90% N2 at 37° C.). After the incubation period, 3 μL of culture from each well were mixed with 197 μL of PBS containing 0.1 μM Syto 11 (Thermo Fisher Scientific Inc), to obtain a final concentration of ca. 1-10×10^6 cells/ml.
Parasitemia was assessed by flow cytometry using a LSRFortessa flow cytometer (BD Biosciences, San Jose, CA, USA) set up with the 4 lasers, 20 parameters standard configuration. The single-cell population was selected on a forward-side scatter scattergram.
Growth inhibition was calculated taking as reference values both the growth rate of the untreated culture and the growth rate of the culture treated with chloroquine.

[2] = In vivo toxicity assay in mice; design: species or system BALB/c mice
Protocol: BALB/c female and male mice (Janvier Laboratories) were maintained with unlimited access to food and water under standard environmental conditions (20-24° C. and 12/12 h light/dark cycle). […] First, the lowest dose was intravenously injected to one female and one male mice. An oxygen stream of 4% isoflurane was used to anesthetize the mice, which were then maintained during the whole procedure (less than 3 minutes) with 2.5% isoflurane.
After the administration, mice were observed and different parameters related to their behavior (lethargy, motility alterations, seizures, coma, automutilation, aggressiveness, vocalizations, stereotyped movements) and physical conditions (pain, respiratory disturbances, tachycardia or bradycardia, dehydration, hair loss, body weight loss, dermatitis, bad hygiene, pruritus, tearing) were followed. If after 48 h no deleterious effects were observed, the following dose was administered to two other male and female mice.

P. falciparum W2 strain = test: Growth inhibition, chloroquine-resistant W2 strain; format: cell-based; details: Plasmodium falciparum
Text: P. falciparum parasites of chloroquine-sensitive (3D7 strain) and chloroquine- and artemisinin-resistant strains were processed as described in section 1.1.3 of EXAMPLE 1.
In particular, the P. falciparum resistant strains were the following: (1) strain W2 MRA-157 (BEI Resources, managed by ATCC) which is chloroquine-resistant; (2) strains 3D7 harboring the K13 mutations associated to artemisinin resistance, either M5791 or R561H (both provided by Dr. David A. Fidock and referenced in Stokes, B. H. et al., 2021); (3) Cam 3.11 strain which is chloroquine and sulfadoxine/pyrimethamine-resistant; and (4) Cam 3.11 strain modified to carry K13 mutations associated to artemisinin-resistant strains, either R561H or R539T, therefore being multiresistant strains. All Cam 3.11 strains (3) and (4) were provided by Dr. David A. Fidock and are referenced in Straimer, J. et al., 2015 and Stokes, B. H. et al., 2021.
Then, the required amount of AID-X-2020 was added to each well at different concentrations (0.0001, 0.001, 0.01, 1 and 10 μM) and triplicates.

P. falciparum cultures = test: Combination assay of AID-X-2020 and artemisinin (isobologram, FIC); format: cell-based, Plasmodium falciparum; details: combined with artemisinin in different ratios
Protocol: For assays of AID-X-2020 and artemisinin, serial dilutions of both compounds were prepared at different concentration ratios (1:0, 0:1, 1:1, 1:2, 2:1, 1:5 and 5:1).
To assess the synergistic effect of AID-X-2020 and artemisinin, IC50 values for each individual compound in the mixtures were calculated as described above and plotted in an isobologram (“x” value=AID-X-2020 IC50 and “y” value=artemisinin IC50). Fractional inhibitory concentration (FIC) values were calculated by dividing the IC50 of one of the compounds in the mixture by the IC50 of the same compound in the 1:0 or 0:1 ratio mixture.

P. falciparum 3D7 strain [3] = test: Dot blot / Western blot of treated P. falciparum cultures (ubiquitinated proteins, amyloid fibrils); format: cell-based, Plasmodium falciparum
Protocol: Cultures of the P. falciparum 3D7 strain were sorbitol synchronized in ring stages, and after 24 h were treated for 90 min with AID-X-2020 concentrations ranging from 33 nM to 33 μM. After that time, cultures were spun down and pellets were washed once with ice-cold PBS supplemented with EDTA-free protease inhibitor cocktail (PIC, Roche; 1 PIC tablet/10 mL PBS). For anti-ubiquitin Western blots, PBS was also supplemented with 20 mM N-ethylmaleimide. […] Protein extracts were quantified with the bicinchoninic acid assay (ThermoFisher Scientific), following the manufacturer's instructions. […]
For Western blots, 15 μg of saponin-extracted proteins were incubated for 5 min at 95° C. diluted in Laemmli solution (0.14 M SDS, 0.125 M tris-HCl, pH 6.8, 20% glycerol, 10% 2-mercaptoethanol, 3 mM bromophenol blue) and resolved by SDS-PAGE in 12% bis-tris acrylamide (Bio-Rad) gels run at 80 V until samples entered the resolving gel and at 120 V afterwards. […] After probing with secondary antibodies, for both dot blot and Western blot membranes, four washes with TBS-Tween and one last wash with TBS were done and peroxidase substrate (ECL Prime Western Blotting Detection Reagent, Amersham Life Science, Inc.) was poured on the membrane and chemiluminescent signal was measured in a LAS 4000 reader (ImageQuant) at different exposure times.

## CCN(CC)c1ccc(/C=C/c2cc[n+](CCCCCCCCCC[n+]3ccc(/C=C/c4ccc(N(CC)CC)cc4)c(C)c3)cc2C)cc1 [AID-X-2020, 1,1′-(decane-1,10-diyl)bis{4-[(E)-4-(diethylamino)styryl]-3-methylpyridin-1-ium} dibromide]
P. falciparum 3D7 strain [1]; P. falciparum cultures
  in vitro IC10: 27 nM
P. falciparum 3D7 strain [1]; 48 h, Table 2, read-out: IC50 in 3D7 strain (μM) ± SEM
  IC50: 0.09 ± 0.02 µM
P. falciparum 3D7 strain [1]; Example 8, read-out: IC50 in 3D7 strain
  IC50: 0.09 µM
P. falciparum 3D7 strain [1]; read-out: IC50 in P. falciparum in vitro cultures
  IC50: 0.09 ± 0.002 µM
[2]; female mice
  dose at which adverse effects start: 10 mg/kg
[2]; male mice
  dose at which toxicity starts being observed: 17 mg/kg
P. falciparum W2 strain
  IC50: 90 ± 1 nM
P. falciparum cultures
  ZFIC values: higher than 1.5
P. falciparum 3D7 strain [3]; 90 nM treatment of P. falciparum cultures, along time
  effect on ubiquitinated proteins: reduction in ubiquitinated proteins
P. falciparum 3D7 strain [3]; 90 min exposure, dot blot
  concentration inhibiting amyloid fibril formation: > 3 µM

Reference: patent US20240415825A1, “COMPOUNDS FOR THE TREATMENT OF MALARIA” (FUNDACIÓ INSTITUT DE BIOENGINYERIA DE CATALUNYA, priority 2021, published 2024)
